Assay results taken from patent US10487092B2, “Pyrazolopyridinamines as MKNK1 and MKNK2 inhibitors” (BAYER PHARMA AKTIENGESELLSCHAFT, priority 2014, dated 2019).

Assays:
[1] = tested on: secretion of TNF-α in human PBMCs; assay: In vitro IL-1β-induced cytokine (TNF-α) secretion of human PBMCs; assay type: cell-based; details: PBMC; human PBMCs stimulated with 20 ng/ml IL-1β for 24 hours
Source text: In Vitro IL-1β (Interleukin-1 beta, IL-1b)-Induced Cytokine Secretion of Human PBMCs (Peripheral Blood Mononuclear Cells)
The effect of the chemical compounds on the induced cytokine secretion of human PBMCs has been investigated. Here, the cytokine secretion has been induced by IL-1β which binding to its receptors leads to the activation of the MKNK signaling pathway.
Human PBMCs have been isolated from anti-coagulated human whole blood donated from healthy volunteers by pre-filling Leucosep tubes with ficoll-paque (15 ml, Biochrom, order ID: L6115) and adding 20 ml whole blood. After centrifugation of the blood at 800 g for 15 min at room temperature (RT) plasma including thrombocytes has been discarded. PBMCs were transferred to a new falcon tube, washed with PBS (phosphate-buffered saline) at 250 g for 10 min at RT and resuspended in complete medium [RPMI 1640, without L-glutamine (PAA, order ID: E15-039), 10% FCS; 50 U/ml Penicillin, 50 μg/ml Streptomycin (PAA, order ID: P11-010) and 1% L-glutamine (Sigma, order ID. G7513)]. The assay was performed in a 96-well plate at a cell density of 2.5×10^5 cells/well as triplicates. The compounds were serially diluted in DMSO and added to the PBMCs at a range of 3×10^−9 M to 1×10^−5M with a final concentration of 0.4% DMSO, respectively. Treatment of PBMCs with 0.4% DMSO was used as control. After 30 min of incubation, PBMCs were stimulated with 20 ng/ml IL-1β (R&D, order ID: 201-LB CF) for 24 hours. Cell viability was measured using the CellTiter-Glo Luminescent Assay (Promega, order ID: G7571) following the manufacturers protocol. The amount of secreted TNF-α (tumor necrosis factor-alpha) in the supernatant was determined using the Human Prolnflammatory 9-Plex (MSD, order ID: K15007B) according to manufacturer's instruction. The inhibitory activity was determined as the relation to the control in percent. IC50 values were calculated using the 4-parameter logistic model.

human full-length MKNK1 = human full-length MKNK1 (Homo sapiens (Human), UniProt Q9BUB5, T344D); assay: MKNK1 kinase high ATP assay (TR-FRET); assay type: biochemical; details: high ATP (2 mM), 15 min preincubation with enzyme; read-out: MKNK1 IC50
Method in brief: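 GST-tagged full-length MKNK1 (aa 1–424, T344D; insect-cell expressed) preincubated 15 min with compound, then reacted 30 min at 22 °C with 2 mM ATP and 0.06 μM biotinylated peptide (final) in HEPES pH 7.5 buffer. Phosphopeptide detected by TR-FRET 665/620 ratio, normalized to no-inhibitor and no-enzyme controls.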

human full-length MKNK1, sequence (Q9BUB5 other isoform, or with tags, fused parts or gaps T344D): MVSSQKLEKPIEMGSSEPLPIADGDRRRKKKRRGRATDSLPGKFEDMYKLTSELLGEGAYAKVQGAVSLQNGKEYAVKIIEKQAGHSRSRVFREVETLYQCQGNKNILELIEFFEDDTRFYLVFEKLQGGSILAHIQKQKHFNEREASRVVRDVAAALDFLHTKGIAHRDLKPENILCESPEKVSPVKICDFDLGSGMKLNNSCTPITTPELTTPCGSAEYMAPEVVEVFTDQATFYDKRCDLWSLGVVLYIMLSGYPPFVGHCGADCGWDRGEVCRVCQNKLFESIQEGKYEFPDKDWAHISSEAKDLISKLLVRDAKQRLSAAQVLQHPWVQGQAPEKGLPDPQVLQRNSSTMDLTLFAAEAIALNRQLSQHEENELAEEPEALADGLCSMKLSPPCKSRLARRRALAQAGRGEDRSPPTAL

Compound: COc1cn2nccc2cc1Nc1ncnc2sc3c(c12)CC[C@H](C(=O)N(C)C)C3 [Example 15, (7S)-4-[(6-Methoxypyrazolo[1,5-a]pyridin-5-yl)amino]-N,N-dimethyl-5,6,7,8-tetrahydro[1]benzothieno[2,3-d]pyrimidine-7-carboxamide]
- IC50 [1]: 10 to 100 nM
- IC50 (human full-length MKNK1): 4 nM

Compound: CN(C)CCCN(C)C(=O)[C@H]1CCc2c(sc3ncnc(Nc4ccn5nccc5c4)c23)C1 [Example 27, (7S)—N-[3-(Dimethylamino)propyl]-N-methyl-4-(pyrazolo[1,5-a]pyridin-5-ylamino)-5,6,7,8-tetrahydro[1]benzothieno[2,3-d]pyrimidine-7-carboxamide]
- IC50 [1]: ≥ 100 nM
- IC50 (human full-length MKNK1): 13 nM

Compound: CN(C)C1CCN(C(=O)[C@H]2CCc3c(sc4ncnc(Nc5ccn6nccc6c5)c34)C2)CC1 [Example 32, [4-(Dimethylamino)piperidin-1-yl][(7S)-4-(pyrazolo[1,5-a]pyridin-5-ylamino)-5,6,7,8-tetrahydro[1]benzothieno[2,3-d]pyrimidin-7-yl]methanone]
- IC50 [1]: 10 to 100 nM
- IC50 (human full-length MKNK1): 25 nM

Compound: CN(CCN)C(=O)[C@H]1CCc2c(sc3ncnc(Nc4ccn5nccc5c4)c23)C1 [Example 39, (7S)—N-(2-Aminoethyl)-N-methyl-4-(pyrazolo[1,5-a]pyridin-5-ylamino)-5,6,7,8-tetrahydro[1]benzothieno[2,3-d]pyrimidine-7-carboxamide]
- IC50 [1]: ≥ 100 nM
- IC50 (human full-length MKNK1): 41 nM

Compound: CN(C)CCCN(C)C(=O)[C@H]1CCc2c(sc3ncnc(Nc4cc5ccnn5cc4Cl)c23)C1 [Example 51, (7S)-4-[(6-Chloropyrazolo[1,5-a]pyridin-5-yl)amino]-N-[3-(dimethylamino)propyl]-N-methyl-5,6,7,8-tetrahydro[1]benzothieno[2,3-d]pyrimidine-7-carboxamide]
- IC50 [1]: 10 to 100 nM
- IC50 (human full-length MKNK1): 5 nM

Compound: CN(C)CCN(C)C(=O)[C@H]1CCc2c(sc3ncnc(Nc4cc5ccnn5cc4Cl)c23)C1 [Example 53, (7S)-4-[(6-Chloropyrazolo[1,5-a]pyridin-5-yl)amino]-N-[2-(dimethylamino)ethyl]-N-methyl-5,6,7,8-tetrahydro[1]benzothieno[2,3-d]pyrimidine-7-carboxamide]
- IC50 [1]: ≥ 100 nM
- IC50 (human full-length MKNK1): 9 nM

Compound: CN(C)C1CN(C(=O)[C@H]2CCc3c(sc4ncnc(Nc5cc6ccnn6cc5Cl)c34)C2)C1 [Example 54, (7S)-4-[(6-Chloropyrazolo[1,5-a]pyridin-5-yl)amino]-5,6,7,8-tetrahydro[1]benzothieno[2,3-d]pyrimidin-7-yl[3-(dimethylamino)azetidin-1-yl]methanone]
- IC50 [1]: 10 to 100 nM
- IC50 (human full-length MKNK1): 11 nM

Compound: COc1cn2nccc2cc1Nc1ncnc2sc3c(c12)CC[C@H](C(=O)N1CCC(N(C)C)CC1)C3 [Example 109, [4-(Dimethylamino)piperidin-1-yl](7S)-4-[(6-methoxypyrazolo[1,5-a]pyridin-5-yl)amino]-5,6,7,8-tetrahydro[1]benzothieno[2,3-d]pyrimidin-7-ylmethanone]
- IC50 (human full-length MKNK1): 1 nM

Compound: COc1cn2nccc2cc1Nc1ncnc2sc3c(c12)CC[C@H](C(=O)N1CCC(N(C)CCN(C)C)CC1)C3 [Example 110]
- IC50 (human full-length MKNK1): < 1 nM

Compound: COc1cn2nccc2cc1Nc1ncnc2sc3c(c12)CC[C@H](C(=O)N(CCO)CCCN(C)C)C3 [Example 111, (7S)—N-[3-(Dimethylamino)propyl]-N-(2-hydroxyethyl)-4-[(6-methoxypyrazolo[1,5-a]pyridin-5-yl)amino]-5,6,7,8-tetrahydro[1]benzothieno[2,3-d]pyrimidine-7-carboxamide]
- IC50 (human full-length MKNK1): 3 nM

Compound: COc1cn2nccc2cc1Nc1ncnc2sc3c(c12)CC[C@H](C(=O)N1C[C@@H](C)O[C@@H](C)C1)C3 [Example 112, [(2R,6S)-2,6-Dimethylmorpholin-4-yl](7S)-4-[(6-methoxypyrazolo[1,5-a]pyridin-5-yl)amino]-5,6,7,8-tetrahydro[1]benzothieno[2,3-d]pyrimidin-7-ylmethanone]
- IC50 (human full-length MKNK1): 2 nM

Compound: COc1cn2nccc2cc1Nc1ncnc2sc3c(c12)CC[C@H](C(=O)N1CCN(CCN(C)C)CC1)C3 [Example 114, 4-[2-(Dimethylamino)ethyl]piperazin-1-yl(7S)-4-[(6-methoxypyrazolo[1,5-a]pyridin-5-yl)amino]-5,6,7,8-tetrahydro[1]benzothieno[2,3-d]pyrimidin-7-ylmethanone]
- IC50 (human full-length MKNK1): < 1 nM

Compound: CCN(CCN(C)C)C(=O)[C@H]1CCc2c(sc3ncnc(Nc4cc5ccnn5cc4OC)c23)C1 [Example 115, (7S)—N-[2-(Dimethylamino)ethyl]-N-ethyl-4-[(6-methoxypyrazolo[1,5-a]pyridin-5-yl)amino]-5,6,7,8-tetrahydro[1]benzothieno[2,3-d]pyrimidine-7-carboxamide]
- IC50 (human full-length MKNK1): 1 nM

Compound: CCN(CCO)C(=O)[C@H]1CCc2c(sc3ncnc(Nc4cc5ccnn5cc4OC)c23)C1 [Example 117, (7S)—N-Ethyl-N-(2-hydroxyethyl)-4-[(6-methoxypyrazolo[1,5-a]pyridin-5-yl)amino]-5,6,7,8-tetrahydro[1]benzothieno[2,3-d]pyrimidine-7-carboxamide]
- IC50 (human full-length MKNK1): 1 nM

Compound: CCN(CCOC)C(=O)[C@H]1CCc2c(sc3ncnc(Nc4cc5ccnn5cc4OC)c23)C1 [Example 118, (7S)—N-Ethyl-N-(2-methoxyethyl)-4-[(6-methoxypyrazolo[1,5-a]pyridin-5-yl)amino]-5,6,7,8-tetrahydro[1]benzothieno[2,3-d]pyrimidine-7-carboxamide]
- IC50 (human full-length MKNK1): 1 nM

Compound: COCCN(CCOC)C(=O)[C@H]1CCc2c(sc3ncnc(Nc4cc5ccnn5cc4OC)c23)C1 [Example 119, (7S)—N,N-Bis(2-methoxyethyl)-4-[(6-methoxypyrazolo[1,5-a]pyridin-5-yl)amino]-5,6,7,8-tetrahydro[1]benzothieno[2,3-d]pyrimidine-7-carboxamide]
- IC50 (human full-length MKNK1): < 1 nM

Compound: COc1cn2nccc2cc1Nc1ncnc2sc3c(c12)CC[C@H](C(=O)N(C)C(C)(C)C)C3 [Example 120, (7S)—N-tert-Butyl-4-[(6-methoxypyrazolo[1,5-a]pyridin-5-yl)amino]-N-methyl-5,6,7,8-tetrahydro[1]benzothieno[2,3-d]pyrimidine-7-carboxamide]
- IC50 (human full-length MKNK1): 5 nM

Compound: COc1cn2nccc2cc1Nc1ncnc2sc3c(c12)CC[C@H](C(=O)N1C[C@@H]2C[C@H]1CN2C)C3 [Example 121, (7S)-4-[(6-Methoxypyrazolo[1,5-a]pyridin-5-yl)amino]-5,6,7,8-tetrahydro[1]benzothieno[2,3-d]pyrimidin-7-yl[(1S,4S)-5-methyl-2,5-diazabicyclo[2.2.1]hept-2-yl]methanone]
- IC50 (human full-length MKNK1): 1 nM

Compound: COc1cn2nccc2cc1Nc1ncnc2sc3c(c12)CC[C@H](C(=O)N1C[C@H]2C[C@@H]1CN2C)C3 [Example 122, (7S)-4-[(6-Methoxypyrazolo[1,5-a]pyridin-5-yl)amino]-5,6,7,8-tetrahydro[1]benzothieno[2,3-d]pyrimidin-7-yl[(1R,4R)-5-methyl-2,5-diazabicyclo[2.2.1]hept-2-yl]methanone]
- IC50 (human full-length MKNK1): < 1 nM

Compound: COc1cn2nccc2cc1Nc1ncnc2sc3c(c12)CC[C@H](C(=O)N1C[C@@H]2C[C@H]1CO2)C3 [Example 123, (7S)-4-[(6-Methoxypyrazolo[1,5-a]pyridin-5-yl)amino]-5,6,7,8-tetrahydro[1]benzothieno[2,3-d]pyrimidin-7-yl[(1S,4S)-2-oxa-5-azabicyclo[2.2.1]hept-5-yl]methanone]
- IC50 (human full-length MKNK1): 2 nM

Compound: COc1cn2nccc2cc1Nc1ncnc2sc3c(c12)CC[C@H](C(=O)N1C[C@H]2C[C@@H]1CO2)C3 [Example 124, (7S)-4-[(6-Methoxypyrazolo[1,5-a]pyridin-5-yl)amino]-5,6,7,8-tetrahydro[1]benzothieno[2,3-d]pyrimidin-7-yl[(1R,4R)-2-oxa-5-azabicyclo[2.2.1]hept-5-yl]methanone]
- IC50 (human full-length MKNK1): 1 nM

Compound: COc1cn2nccc2cc1Nc1ncnc2sc3c(c12)CC[C@H](C(=O)N1CCOC[C@H]1C)C3 [Example 126, (7S)-4-[(6-Methoxypyrazolo[1,5-a]pyridin-5-yl)amino]-5,6,7,8-tetrahydro[1]benzothieno[2,3-d]pyrimidin-7-yl[(3R)-3-methylmorpholin-4-yl]methanone]
- IC50 (human full-length MKNK1): 1 nM

Compound: (7S)-4-[(6-Chloropyrazolo[1,5-a]pyridin-5-yl)amino]-5,6,7,8-tetrahydro[1]benzothieno[2,3-d]pyrimidin-7-yl(4-[2-dimethylamino)ethyl](methyl)aminopiperidin-1-yl)methanone [Example 62]
- IC50 (human full-length MKNK1): 6 nM
